The record followed here is US8673951B2, “Isoxazoline-substituted benzamide compound and pesticide” (priority 2005, dated 2014).

Assay [1] has as its system cabbage moth (Plutella xylostella). Briefly: Insecticidal test against cabbage moth (Test Example 1). In kind it is in vivo. The following applies: foliar, 144 h, read-out: insecticidal rate (rate of dead insects).
The subject of assay [2] is common cutworm (Spodoptera litura). Nature of the assay: Insecticidal test against common cutworm (Test Example 2). The class given is in vivo. The following applies: in Brassica oleracea, foliar, 144 h, read-out: insecticidal rate (rate of dead insects). The protocol: A 10% emulsifiable concentrate (depending on the compounds, 10% wettable powder was applied for the test) of the compound of the present invention was diluted with water […] To the chemical solution was dipped leaves of cabbage for about 10 seconds, and after air-drying, they were placed in a laboratory dish, then 5-common cutworm (Spodoptera litura) in the stage of second instar larva per the dish were released therein, and the dish was covered with a lid and contained at a thermostat chamber at 25° C. […] Incidentally, the test was carried out with two districts.

A value given as a limit tells only on which side of the number the result lay.

With `COC(=O)N(C(=O)c1ccc(C2=NOC(c3cc(Cl)cc(Cl)c3)(C(F)(F)F)C2)cc1C)c1ccc(Cl)cn1` (stereo not shown) [5-060, Methyl N-(5-chloro-2-pyridyl)-N-[4-[5-(3,5-dichlorophenyl)-5-trifluoromethyl-4,5-dihydro-isoxazole-3-yl]-2-methylbenzoyl]carbamate], the pest or weed control at 100 ppm in assay [1] and in assay [2] was no less than 80% throughout.
Take `COC(=O)N(C(=O)c1ccc(C2=NOC(c3cc(Cl)cc(Cl)c3)(C(F)(F)F)C2)cc1C)c1ccc(C#N)cn1` (stereo not shown) [5-071, Methyl N-(5-cyano-2-pyridyl)-N-[4-[5-(3,5-dichlorophenyl)-5-trifluoromethyl-4,5-dihydro-isoxazole-3-yl]-2-methylbenzoyl]carbamate]: the pest or weed control at 10 ppm in assay [1] and in assay [2] was no less than 80% throughout.
In the case of `COC(=O)N(COCC(F)(F)F)C(=O)c1ccc(C2=NOC(c3cc(Cl)cc(Cl)c3)(C(F)(F)F)C2)cc1C` (stereo not shown) [3-032, Methyl N-[4-[5-(3,5-dichlorophenyl)-5-trifluoromethyl-4,5-dihydro-isoxazole-3-yl]-2-methylbenzoyl]-N-(2,2,2-trifluoroethoxymethyl)carbamate], the pest or weed control at 10 ppm in assay [1] and in assay [2] was no less than 80% each time.
With `Cc1cc(C2=NOC(c3cc(Cl)cc(Cl)c3)(C(F)(F)F)C2)ccc1C(=O)N(C)c1ncc(C#N)cn1` (stereo not shown) [5-171, N-(5-Cyano-2-pyrimidinyl)-4-[5-(3,5-dichlorophenyl)-5-trifluoromethyl-4,5-dihydroisoxazole-3-yl]-N-methyl-2-methyl benzoic acid amide], the pest or weed control at 10 ppm in assay [1] and in assay [2] was no less than 80% throughout.
Consider `CON=CNC(=O)c1ccc(C2=NOC(c3cc(Cl)cc(C(F)(F)F)c3)(C(F)(F)F)C2)cc1C` (stereo not shown) [6-037, 4-[5-(3-Chloro-5-trifluoromethylphenyl)-5-trifluoromethyl-4,5-dihydroisoxazole-3-yl]-N-(methoxyiminomethyl)-2-methyl benzoic acid amide], for which the pest or weed control at 10 ppm in assay [1] and in assay [2] was no less than 80% each time.
On to `CON=CN(C)C(=O)c1ccc(C2=NOC(c3cc(Cl)cc(Cl)c3)(C(F)(F)F)C2)cc1C` (stereo not shown) [7-002, 4-[5-(3,5-Dichlorophenyl)-5-trifluoromethyl-4,5-dihydroisoxazole-3-yl]-N-(methoxyiminomethyl)-N-methyl-2-methylbenzoic acid amide], for which the pest or weed control at 10 ppm in assay [1] and in assay [2] was no less than 80% in each case.
On to `Cc1cc(C2=NOC(c3cc(Cl)cc(Cl)c3)(C(F)(F)F)C2)ccc1C(=O)N(C)C(=O)NC(=O)CCl` (stereo not shown) [4-006, N-Chloroacetyl-N′-[4-[5-(3,5-dichlorophenyl)-5-trifluoromethyl-4,5-dihydroisoxazole-3-yl]-2-methylbenzoyl]-N′-methyl urea], for which the pest or weed control at 100 ppm in assay [1] and in assay [2] was no less than 80% each time.
Take `Cc1cc(C2=NOC(c3cc(Cl)cc(Cl)c3)(C(F)(F)F)C2)ccc1C(=O)N(C)c1cccc(Br)n1` (stereo not shown) [5-075, N-(6-Bromo-2-pyridyl)-4-[5-(3,5-dichlorophenyl)-5-trifluoromethyl-4,5-dihydro-isoxazole-3-yl]-N-methyl-2-methyl benzoic acid amide]: the pest or weed control at 10 ppm in assay [1] and in assay [2] was no less than 80% throughout.
As to `Cc1cc(C2=NOC(c3cc(Cl)cc(Cl)c3)(C(F)(F)F)C2)ccc1C(=O)NC(N)=O` (stereo not shown) [4-002, N-Carbamoyl-4-[5-(3,5-dichlorophenyl)-5-trifluoromethyl-4,5-dihydro-isoxazole-3-yl]-2-methyl benzoic acid amide], the pest or weed control at 100 ppm in assay [1] and in assay [2] was no less than 80% throughout.
For the molecule `CC(=O)N(C(=O)c1ccc(C2=NOC(c3cc(Cl)cc(Cl)c3)(C(F)(F)F)C2)cc1C)n1cccn1` (stereo not shown) [5-044, N-Acetyl-4-[5-(3,5-dichlorophenyl)-5-trifluoromethyl-4,5-dihydroisoxazole-3-yl]-2-methyl-N-(1-pyrazolyl)benzoic acid amide], the pest or weed control at 100 ppm in assay [1] and in assay [2] was no less than 80% throughout.
As to `CON=CNC(=O)c1ccc(C2=NOC(c3cc(Cl)cc(Cl)c3)(C(F)(F)F)C2)cc1CN(C)C` (stereo not shown) [6-032, 4-[5-(3,5-Dichlorophenyl)-5-trifluoromethyl-4,5-dihydroisoxazole-3-yl]-2-(dimethylaminomethyl)-N-(methoxyiminomethyl)benzoic acid amide], the pest or weed control at 500 ppm in assay [1] is no less than 80%.
For the molecule `CON=CNC(=O)c1ccc(C2=NOC(c3cc(Cl)cc(Cl)c3)(C(F)(F)F)C2)cc1NC(C)=O` (stereo not shown) [6-033, 2-Acetylamino-4-[5-(3,5-dichlorophenyl)-5-trifluoromethyl-4,5-dihydroisoxazole-3-yl]-N-(methoxyiminomethyl)benzoic acid amide], the pest or weed control at 10 ppm in assay [1] and in assay [2] was no less than 80% throughout.
Regarding `CCO/N=C\NC(=O)c1ccc(C2=NOC(c3cc(Cl)cc(Cl)c3)(C(F)(F)F)C2)cc1OC(F)F` (stereo not shown) [6-023, (Z)-4-[5-(3,5-Dichlorophenyl)-5-trifluoromethyl-4,5-dihydroisoxazole-3-yl]-2-difluoromethoxy-N-(ethoxyiminomethyl)benzoic acid amide], the pest or weed control at 100 ppm in assay [1] and in assay [2] was no less than 80% each time.
`COC(=O)N(C(=O)c1ccc(C2=NOC(c3cc(Cl)cc(Cl)c3)(C(F)(F)F)C2)cc1C)C1CCCO1` (stereo not shown) [3-077, Methyl N-[4-[5-(3,5-dichlorophenyl)-5-trifluoromethyl-4,5-dihydro-isoxazole-3-yl]-2-methylbenzoyl]-N-(2-tetrahydrofuranyl)carbamate]: the pest or weed control at 10 ppm in assay [1] and in assay [2] was no less than 80% in each case.
Turning to `CC(=O)N(C(=O)c1ccc(C2=NOC(c3cc(Cl)cc(Cl)c3)(C(F)(F)F)C2)cc1C)c1cccc(Cl)n1` (stereo not shown) [5-073, N-Acetyl-N-(6-chloro-2-pyridyl)-4-[5-(3,5-dichlorophenyl)-5-trifluoromethyl-4,5-dihydroisoxazole-3-yl]-2-methyl benzoic acid amide], the pest or weed control at 10 ppm in assay [1] and in assay [2] was no less than 80% throughout.
`COC(=O)N(C(=O)c1ccc(C2=NOC(c3cc(Cl)cc(Cl)c3)(C(F)(F)F)C2)cc1C)c1cncnc1` (stereo not shown) [5-169, Methyl N-[4-[5-(3,5-dichlorophenyl)-5-trifluoromethyl-4,5-dihydro-isoxazole-3-yl]-2-methylbenzoyl]-N-(5-pyrimidinyl)carbamate]: the pest or weed control at 10 ppm in assay [1] and in assay [2] was no less than 80% in each case.
On to `COC(=O)NC(=O)c1ccc(C2=NOC(c3cc(Cl)c(Cl)c(Cl)c3)(C(F)(F)F)C2)cc1C` (stereo not shown) [2-026, Methyl N-[2-methyl-4-[5-(3,4,5-trichlorophenyl)-5-trifluoromethyl-4,5-dihydroisoxazole-3-yl]benzoyl]carbamate], for which the pest or weed control at 10 ppm in assay [1] and in assay [2] was no less than 80% each time.
Regarding `COC(=O)N(C(=O)c1ccc(C2=NOC(c3cc(Cl)cc(Cl)c3)(C(F)(F)F)C2)cc1C)c1ncccn1` (stereo not shown) [5-014, Methyl N-[4-[5-(3,5-dichlorophenyl)-5-trifluoromethyl-4,5-dihydroisoxazole-3-yl]-2-methylbenzoyl]-N-(2-pyrimidinyl)carbamate], the pest or weed control at 100 ppm in assay [1] and in assay [2] was no less than 80% in each case.
`Cc1cc(C2=NOC(c3cc(Cl)cc(Cl)c3)(C(F)(F)F)C2)ccc1C(=O)N(C)C(N)=O` (stereo not shown) [4-003, N-Carbamoyl-4-[5-(3,5-dichlorophenyl)-5-trifluoromethyl-4,5-dihydroisoxazole-3-yl]-2-methyl-N-methyl benzoic acid amide]: the pest or weed control at 100 ppm in assay [1] and in assay [2] was no less than 80% in each case.
As for `COC(=O)NC(=O)c1c(C)cc(C2=NOC(c3cc(Cl)cc(Cl)c3)(C(F)(F)F)C2)cc1I` (stereo not shown) [2-019, Methyl N-[4-[5-(3,5-dichlorophenyl)-5-trifluoromethyl-4,5-dihydroisoxazole-3-yl]-6-iodo-2-methylbenzoyl]carbamate], in assay [1], the pest or weed control at 500 ppm is no less than 80%.
As to `Cc1cc(C2=NOC(c3cc(Cl)cc(Cl)c3)(C(F)(F)F)C2)ccc1C(=O)N(C)c1cncnc1` (stereo not shown) [5-164, 4-[5-(3,5-Dichlorophenyl)-5-trifluoromethyl-4,5-dihydroisoxazole-3-yl]-2-methyl-N-methyl-N-(5-pyrimidinyl)benzoic acid amide], the pest or weed control at 10 ppm in assay [1] and in assay [2] was no less than 80% throughout.
With `CCc1cc(C2=NOC(c3cc(Cl)cc(Cl)c3)(C(F)(F)F)C2)ccc1C(=O)N/C=N\OC` (stereo not shown) [6-020, (Z)-4-[5-(3,5-Dichlorophenyl)-5-trifluoromethyl-4,5-dihydroisoxazole-3-yl]-2-ethyl-N-(methoxyiminomethyl)benzoic acid amide], the pest or weed control at 10 ppm in assay [1] and in assay [2] was no less than 80% throughout.
For `CCN(C(=O)NC(=O)c1ccc(C2=NOC(c3cc(Cl)cc(Cl)c3)(C(F)(F)F)C2)cc1C)C(=O)OC` (stereo not shown) [4-011, N-[4-[5-(3,5-dichlorophenyl)-5-trifluoromethyl-4,5-dihydro-isoxazole-3-yl]-2-methylbenzoyl]-N′-ethyl-N′-methoxycarbonyl urea], the pest or weed control at 10 ppm in assay [1] and in assay [2] was no less than 80% each time.
Turning to `COCc1cc(C2=NOC(c3cc(Cl)cc(Cl)c3)(C(F)(F)F)C2)ccc1C(=O)NC(=N)OC` (stereo not shown) [6-031, 4-[5-(3,5-Dichlorophenyl)-5-trifluoromethyl-4,5-dihydroisoxazole-3-yl]-N-(methoxy-iminomethyl)-2-methoxymethyl benzoic acid amide], the pest or weed control at 10 ppm in assay [1] and in assay [2] was no less than 80% throughout.
